Measured values as given in DBAASP.
≈ marks a conversion by molar mass, not a printed value. Where “and” joins values, the source holds several entries; their conditions need not be identical. Identical values can stand only once. Each block holds one compound with its values, some of them ahead of it.

Columns and labels:
Assay in all cases: ≥ marks a high value that may be exact or a test limit, other limits are often not marked, values filed in µg/mL are converted to µM
Aeromonas hydrophila = test system: Aeromonas hydrophila
Escherichia coli = test system: Escherichia coli
Streptococcus pyogenes = test system: Streptococcus pyogenes
Vibrio parahaemolyticus = test system: Vibrio parahaemolyticus
Vibrio fluvialis = test system: Vibrio fluvialis
Staphylococcus aureus = test system: Staphylococcus aureus
Vibrio alginolyticus = test system: Vibrio alginolyticus
[1] = test system: Staphylococcus aureus CMCC 26003
[2] = test system: Listeria monocytogenes ATCC 19115
[3] = test system: Proteus vulgaris KCTC 2433
[4] = test system: Staphylococcus epidermidis ATCC 12228
[5] = test system: Staphylococcus aureus ATCC 29213
[6] = test system: Bacillus subtilis KCTC 1998
[7] = test system: Escherichia coli ATCC 25922
[8] = test system: Listeria monocytogenes ATCC 3710
[9] = test system: Pseudomonas aeruginosa ATCC 15692
[10] = test system: Streptococcus dysgalactiae subsp. dysgalactiae ATCC 27957
[11] = test system: Streptococcus agalactiae ATCC 27956
[12] = test system: Bacillus cereus ATCC 10876
Klebsiella pneumoniae = test system: Klebsiella pneumoniae
[13] = test system: Staphylococcus aureus ATCC 25923
[14] = test system: Streptococcus iniae KCTC 3657
[15] = test system: Pseudomonas aeruginosa ATCC 27853
[16] = test system: Streptococcus equi subsp. zooepidemicus ATCC 43079
[17] = test system: Staphylococcus aureus ATCC 6538
[18] = test system: Salmonella enterica subsp. enterica serovar Typhimurium ATCC 14028
[19] = test system: Enterococcus faecalis ATCC 29212

MIC (Aeromonas hydrophila): 8.93 µM (≈ 15.6 µg/mL)
MIC (Escherichia coli): 8.93 µM (≈ 15.6 µg/mL)
MIC (Streptococcus pyogenes): 8.93 µM (≈ 15.6 µg/mL)
MIC (Vibrio fluvialis): ≥ 143 µM
MIC (Staphylococcus aureus): > 143 µM
MIC (Vibrio alginolyticus): ≥ 143 µM
SMILES: CC[C@H](C)[C@H](NC(=O)[C@H](CCCCN)NC(=O)[C@H](Cc1cnc[nH]1)NC(=O)[C@H](CC(C)C)NC(=O)[C@H](CC(C)C)NC(=O)CNC(=O)[C@H](CC(N)=O)NC(=O)[C@@H](N)C(C)C)C(=O)N[C@@H](Cc1ccc(O)cc1)C(=O)NCC(=O)N[C@@H](CC(N)=O)C(=O)N[C@H](C(=O)N[C@@H](CCCN=C(N)N)C(=O)N[C@@H](Cc1ccc(O)cc1)C(=O)N[C@@H](CO)C(=O)O)[C@@H](C)CC [VNGLLHKIYGNIRYS]
MIC (Vibrio parahaemolyticus): ≥ 35.8 µM

MIC [1]: ≥ 109 µM
MIC [2]: ≥ 109 µM
SMILES: CC[C@H](C)[C@H](NC(=O)[C@H](CCCN=C(N)N)NC(=O)[C@H](CCCN=C(N)N)NC(=O)[C@H](Cc1c[nH]c2ccccc12)NC(=O)[C@@H](N)Cc1ccccc1)C(=O)N[C@@H](CCCN=C(N)N)C(=O)N[C@H](C(=O)N[C@H](C(=O)N1CCC[C@H]1C(=O)N[C@H](C(=O)N[C@H](C(=O)N[C@@H](CC(N)=O)C(=O)N1CCC[C@H]1C(=O)N1CCC[C@H]1C(=O)N[C@@H](Cc1ccccc1)C(=O)N[C@@H](CC(C)C)C(=O)N[C@@H](CCC(N)=O)C(=O)N[C@@H](CCC(N)=O)C(=O)N[C@H](C(N)=O)[C@@H](C)O)C(C)C)C(C)C)[C@@H](C)O)C(C)C [FWRRIRVTPVVNPPFLQQT]

MIC [3]: 4 µM and 8 µM
MIC [4]: 4 µM and 8 µM
MIC [5]: 8 µM (≈ 20.2 µg/mL)
MIC [6]: 8 µM and 16 µM
MIC [7]: 2 µM and 4 µM
MIC [8]: 16 µM and 8 µM
MIC [9]: ≥ 32 µM
SMILES: CC[C@H](C)[C@H](NC(=O)CNC(=O)[C@H](Cc1cnc[nH]1)NC(=O)[C@H](CCCCN)NC(=O)[C@@H](NC(=O)[C@H](CO)NC(=O)CNC(=O)[C@@H](NC(=O)[C@H](Cc1ccccc1)NC(=O)[C@H](CCCN=C(N)N)NC(=O)[C@H](CCCCN)NC(=O)[C@@H](N)Cc1ccccc1)[C@@H](C)CC)C(C)C)C(=O)NCC(=O)N[C@@H](Cc1cnc[nH]1)C(=O)N[C@@H](CC(C)C)C(=O)N[C@H](C(=O)N[C@@H](Cc1cnc[nH]1)C(=O)N[C@@H](Cc1cnc[nH]1)C(=O)N[C@H](C(=O)NCC(=O)N[C@H](C(=O)N[C@@H](C)C(=O)N[C@@H](CC(C)C)C(N)=O)C(C)C)[C@@H](C)CC)C(C)C [FKRFIGSVKHGIGHLVHHIGVAL]

MIC [10]: 4.9 µM (≈ 14.9 µg/mL)
MIC [11]: 13.2 µM (≈ 40.1 µg/mL)
MIC [12]: 21.1 µM (≈ 64 µg/mL)
MIC (Klebsiella pneumoniae): 1.32 µM (≈ 4 µg/mL)
MIC [7]: 0.264 µM (≈ 0.8 µg/mL)
MIC [13]: 24.7 µM (≈ 75 µg/mL)
MIC [14]: 21.1 µM (≈ 64 µg/mL)
MIC [15]: 0.329 µM (≈ 1 µg/mL)
MIC [16]: 4.9 µM (≈ 14.9 µg/mL)
MIC [17]: 13.2 µM (≈ 40.1 µg/mL)
MIC [18]: 1.65 µM (≈ 5 µg/mL)
MIC [19]: 13.2 µM (≈ 40.1 µg/mL)
SMILES: CC[C@H](C)[C@H](NC(=O)[C@H](CCCCN)NC(=O)[C@H](CCC(N)=O)NC(=O)[C@H](CC(C)C)NC(=O)CNC(=O)[C@H](CCCCN)NC(=O)CNC(=O)[C@H](CC(C)C)NC(=O)[C@H](CCCCN)NC(=O)[C@H](CCCCN)NC(=O)[C@H](CCCN=C(N)N)NC(=O)[C@H](C)NC(=O)[C@H](CCCCN)NC(=O)[C@H](CCCN=C(N)N)NC(=O)[C@H](Cc1ccccc1)NC(=O)[C@H](Cc1ccccc1)NC(=O)[C@H](CCCCN)NC(=O)[C@@H](N)CO)C(=O)N[C@@H](CCCCN)C(=O)N[C@@H](CC(N)=O)C(=O)N[C@H](C(=O)N[C@@H](CC(C)C)C(=O)N[C@@H](CCCN=C(N)N)C(=O)N[C@@H](CCCCN)C(=O)N[C@@H](Cc1ccc(O)cc1)C(=O)O)C(C)C [SKFFRKARKKLGKGLQKIKNVLRKY]
